Measured values reported in patent US20160031905A1, “Macrocyclic LRRK2 Kinase Inhibitors” (IPSEN PHARMA S.A.S., priority 2013, published 2016).
Where a name gives a salt, the structure may show the parent alone.

Key:
[1] = biological target: T1, LRRK2 recombinant protein (Homo sapiens, UniProt Q5S007); experiment: Radiometric protein kinase assay (33PanQinase Activity Assay), in vitro peptide-based kinase assay; assay type: biochemical; settings: protein kinase LRRK2 7.3 nM, ATP 0.3 μM, substrate GSK3(14-27), 30° C. for 60 minutes
T1 construct: purchased Invitrogen Corporation
T1 sequence (Q5S007 whole entry): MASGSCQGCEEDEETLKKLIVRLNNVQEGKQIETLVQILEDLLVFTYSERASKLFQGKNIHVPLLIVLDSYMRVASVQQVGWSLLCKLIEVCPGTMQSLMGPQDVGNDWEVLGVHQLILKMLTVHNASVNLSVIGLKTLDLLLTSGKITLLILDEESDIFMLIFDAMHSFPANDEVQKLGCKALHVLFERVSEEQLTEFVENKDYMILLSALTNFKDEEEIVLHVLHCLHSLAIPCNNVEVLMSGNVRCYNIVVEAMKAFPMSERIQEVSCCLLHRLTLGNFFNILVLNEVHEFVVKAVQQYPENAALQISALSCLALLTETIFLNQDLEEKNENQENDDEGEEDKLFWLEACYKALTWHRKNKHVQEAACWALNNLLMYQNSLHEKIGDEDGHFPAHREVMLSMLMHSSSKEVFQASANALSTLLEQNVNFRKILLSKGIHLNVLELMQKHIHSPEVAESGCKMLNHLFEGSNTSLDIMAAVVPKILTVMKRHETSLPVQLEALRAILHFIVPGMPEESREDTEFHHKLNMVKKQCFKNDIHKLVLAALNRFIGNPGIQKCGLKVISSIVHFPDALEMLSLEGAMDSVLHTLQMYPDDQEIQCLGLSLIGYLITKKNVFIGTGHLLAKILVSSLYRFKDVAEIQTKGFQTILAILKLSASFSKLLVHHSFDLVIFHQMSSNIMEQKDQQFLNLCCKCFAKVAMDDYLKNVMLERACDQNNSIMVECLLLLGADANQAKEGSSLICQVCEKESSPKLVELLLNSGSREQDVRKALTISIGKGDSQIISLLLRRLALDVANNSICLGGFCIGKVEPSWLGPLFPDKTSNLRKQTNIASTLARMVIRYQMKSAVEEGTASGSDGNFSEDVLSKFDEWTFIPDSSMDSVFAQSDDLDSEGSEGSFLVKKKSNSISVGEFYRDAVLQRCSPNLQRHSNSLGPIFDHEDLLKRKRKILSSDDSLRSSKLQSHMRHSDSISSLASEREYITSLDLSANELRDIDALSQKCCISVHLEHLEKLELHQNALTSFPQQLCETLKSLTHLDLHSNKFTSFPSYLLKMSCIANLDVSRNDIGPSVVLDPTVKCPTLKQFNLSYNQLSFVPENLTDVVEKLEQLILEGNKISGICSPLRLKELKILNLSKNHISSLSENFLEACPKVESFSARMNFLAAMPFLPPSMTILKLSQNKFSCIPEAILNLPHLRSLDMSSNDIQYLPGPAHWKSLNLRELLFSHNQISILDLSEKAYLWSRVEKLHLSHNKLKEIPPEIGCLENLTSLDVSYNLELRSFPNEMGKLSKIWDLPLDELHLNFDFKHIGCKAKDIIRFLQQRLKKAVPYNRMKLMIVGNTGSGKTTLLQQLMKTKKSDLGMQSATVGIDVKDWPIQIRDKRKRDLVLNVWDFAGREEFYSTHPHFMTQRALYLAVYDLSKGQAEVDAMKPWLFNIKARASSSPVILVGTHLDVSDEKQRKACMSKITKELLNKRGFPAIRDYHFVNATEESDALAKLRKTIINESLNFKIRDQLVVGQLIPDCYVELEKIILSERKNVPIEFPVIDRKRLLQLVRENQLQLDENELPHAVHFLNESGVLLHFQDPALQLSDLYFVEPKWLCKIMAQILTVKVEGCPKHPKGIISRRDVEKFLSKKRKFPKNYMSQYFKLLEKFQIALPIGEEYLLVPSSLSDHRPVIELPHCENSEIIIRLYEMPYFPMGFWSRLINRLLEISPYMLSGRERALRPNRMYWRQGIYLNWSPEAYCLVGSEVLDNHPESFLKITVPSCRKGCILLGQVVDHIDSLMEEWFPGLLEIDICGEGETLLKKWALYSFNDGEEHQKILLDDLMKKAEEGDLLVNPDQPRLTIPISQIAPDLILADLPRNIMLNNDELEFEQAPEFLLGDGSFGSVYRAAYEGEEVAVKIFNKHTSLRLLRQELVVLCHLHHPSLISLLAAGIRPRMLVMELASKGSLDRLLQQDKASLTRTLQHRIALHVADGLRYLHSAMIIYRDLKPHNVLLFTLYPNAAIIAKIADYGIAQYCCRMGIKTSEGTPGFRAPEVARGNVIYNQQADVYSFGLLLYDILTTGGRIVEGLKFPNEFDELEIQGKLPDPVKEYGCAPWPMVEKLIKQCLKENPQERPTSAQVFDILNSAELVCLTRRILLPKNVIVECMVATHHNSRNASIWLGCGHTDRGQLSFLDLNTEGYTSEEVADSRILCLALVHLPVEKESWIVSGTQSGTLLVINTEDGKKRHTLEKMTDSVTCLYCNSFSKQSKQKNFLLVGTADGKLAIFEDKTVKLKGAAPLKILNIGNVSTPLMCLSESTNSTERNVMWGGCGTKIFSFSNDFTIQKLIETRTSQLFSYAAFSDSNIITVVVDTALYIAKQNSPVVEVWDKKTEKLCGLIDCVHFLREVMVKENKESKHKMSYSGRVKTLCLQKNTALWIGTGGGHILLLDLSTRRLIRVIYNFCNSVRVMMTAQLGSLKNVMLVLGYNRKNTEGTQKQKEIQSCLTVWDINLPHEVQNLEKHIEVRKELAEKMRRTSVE
Experimental: The inhibition of LRRK2 kinase was assessed using LRRK2 recombinant protein in an in vitro peptide-based kinase assay.
A radiometric protein kinase assay (^33PanQinase® Activity Assay) is used for measuring the kinase activity. All assays are performed in 96-well FlashPlates™ from Perkin Elmer in a 50 μl reaction volume. The reaction cocktail is […] in 4 steps in the following order: • 10 μl of non-radioactive ATP solution (in H2O) • 25 μl of assay buffer/[γ-^33P]-ATP mixture • 5 μl of test sample in 10% DMSO • 10 μl of enzyme/substrate mixture
The assay for LRRK2 contains 70 mM HEPES-NaOH pH 7.5, 3 mM MgCl2, 3 mM MnCl2, 3 μM Na-orthovanadate, 1.2 mM DTT, 50 μg/ml PEG20000, ATP (0.3 μM), [γ-^33P]-ATP (approx. […] per well), protein kinase LRRK2 (7.3 nM) and substrate (GSK3(14-27), 1.0 μg/50 μl). The kinase is obtained from Invitrogen Corporation.
The reaction cocktails were incubated at 30° C. for 60 minutes. The reaction was stopped with 50 μl of 2% (v/v) H3PO4, plates were aspirated and washed two times with 200 μl 0.9% (w/v) NaCl. Incorporation of ^33Pi (counting of “cpm”) was determined with a microplate scintillation counter.
The compounds are dissolved to 10 mM in DMSO. Where needed, solutions are sonicated in a bath sonicator.

IC50 [1] [nM]	melting point [°C]	SMILES
< 100		CN1CCCNCCNc2ccc(F)c(c2)-c2cnc3ccc1nn23 [Compound G50]
< 100	> 300	Fc1ccc2cc1-c1cnn3ccc(nc13)NCCCCNCCO2 [Compound G40]
< 100	197.6	Fc1ccc2cc1-c1cnn3ccc(nc13)NCCCNCCO2 [Compound G6]
	> 300	CN1CCCNc2ccn3ncc(c3n2)-c2cc(ccc2F)OCC1 (as salt: HCl) [Compound G18]
< 100	263.8	CN1CCNCCCNc2ccc(F)c(c2)-c2cnc3ccc1nn23 [Compound G41]
< 100		c1cc2cc(c1)-c1cnn3ccc(nc13)NCCCNCCCN2 [Compound G1]
< 100	> 300	Fc1ccc2cc1-c1cnn3ccc(nc13)NCCNCCCN2 [Compound G21]
< 100	> 300	Fc1ccc2cc1-c1cnn3ccc(nc13)NCCNCCN2 [Compound G7]
< 100	> 300	Clc1ccc2cc1-c1cnn3ccc(nc13)NCCCNCCO2 [Compound G27]
< 100	> 300	CN1CCNCCCNc2ccc(F)c(c2)-c2cnn3ccc1nc23 [Compound G39]
< 100	242.3	CN1CCCOc2ccc3ncc(n3n2)-c2cc(ccc2F)NCC1 [Compound G44]
< 100	> 300	CC1CNCCCNc2ccn3ncc(c3n2)-c2cc(ccc2F)O1 (stereo not drawn) [Compound G28]
< 100	270.4	Fc1ccc2cc1-c1cnn3ccc(nc13)NCCCCNCCN2 [Compound G46]
< 100	> 300	c1cc2cc(c1)-c1cnn3ccc(nc13)NCCCNCCO2 [Compound A33]
< 100	286.4	CN1CCNCCCOc2cccc(c2)-c2cnn3ccc1nc23 [Compound G22]
< 100	> 300	CN1CCNCCCOc2ccc(F)c(c2)-c2cnn3ccc1nc23 [Compound G26]
	280	c1cc2cc(c1)-c1cnn3ccc(nc13)OCCCNCCN2 (as salt: HCl) [Compound G3]
< 100	> 300	c1cc2cc(c1)-c1cnn3ccc(nc13)NCCNCCN2 [Compound D1]
< 100	> 300	Fc1ccc2cc1-c1cnn3ccc(nc13)NCCCNCCN2 [Compound G12]

IC50 [1] [nM]	melting point [°C]	SMILES
	> 300	Fc1ccc2cc1-c1cnn3ccc(nc13)NCCNCCO2 (as salt: hydrochloride) [Compound C1]
< 100		Fc1ccc2cc1-c1cnn3ccc(nc13)NCCNCCO2 [Compound C1]
< 100	> 300	c1cc2cc(c1)-c1cnn3ccc(nc13)NCCNCCCN2 [Compound D3]
< 100	> 300	Fc1ccc2cc1OCCNCCNc1ccn3ncc-2c3n1 [Compound C2]
< 100	> 300	Fc1ccc2cc1-c1cnc3ccc(nn13)NCCCNCCN2 [Compound G43]
100 to 1000	168.8	CN1CCCOc2ccc(F)c(c2)-c2cnn3ccc(nc23)NCC1 [Compound G25]
< 100	> 300	CC1CNCCCNc2ccn3ncc(c3n2)-c2cccc(c2)O1 (stereo not drawn) [Compound G23]
< 100	> 300	Fc1ccc2cc1-c1cnc3ccc(nn13)OCCCNCCN2 [Compound G36]
	280	c1cc2cc(c1)-c1cnn3ccc(nc13)NCCCNCCCN2 (as salt: HCl) [Compound G1]
< 100	215	CC1CNCCNc2ccn3ncc(c3n2)-c2cccc(c2)O1 (racemic) [Compound G5]
< 100	> 300	Fc1ccc2cc1-c1cnc3ccc(nn13)NCCNCCCN2 [Compound G37]
< 100		CN1CCCNCCOc2ccc(F)c(c2)-c2cnn3ccc1nc23 [Compound G16]
< 100	297.5	CN1CCCNCCOc2cccc(c2)-c2cnn3ccc1nc23 [Compound G17]
< 100	276.7	c1cc2cc(c1)-c1cnn3ccc(nc13)OCCNCCCN2 [Compound G8]
< 100		CN1CCCNc2ccn3ncc(c3n2)-c2cc(ccc2F)OCC1 [Compound G18]
< 100	> 300	c1cc2cc(c1)-c1cnn3ccc(nc13)NCCCCNCCO2 [Compound G14]
< 100	296.8	c1cc2cc(c1)-c1cnn3ccc(nc13)NCCCNCCN2 [Compound D4]
< 100	262.6	N#CCN1CCCNc2ccc(F)c(c2)-c2cnn3ccc(nc23)NCC1 [Compound G47]
< 100	> 300	CN1CCCNCCOc2ccc(F)c(c2)-c2cnc3ccc1nn23 [Compound G24]

IC50 [1] [nM]	melting point [°C]	SMILES
< 100	289.1	CN1CCCNc2ccc(F)c(c2)-c2cnc3ccc(nn23)NCC1 [Compound G45]
< 100		c1cc2cc(c1)-c1cnn3ccc(nc13)OCCCNCCN2 [Compound G3]
< 100		CN1CCCNc2ccn3ncc(c3n2)-c2cccc(c2)OCC1 [Compound G20]
100 to 1000	296.8	Cc1ccc2cc1-c1cnn3ccc(nc13)NCCCNCCO2 [Compound G42]
< 100	> 300	c1cc2cc(c1)-c1cnc3ccc(nn13)NCCNCCCO2 [Compound G32]
< 100		CC1COc2cccc(c2)-c2cnn3ccc(nc23)NCCCN1 (stereo not drawn) [Compound G31]
< 100	279.1	Fc1ccc2cc1-c1cnn3ccc(nc13)OCCCNCCN2 [Compound G19]
< 100		Fc1ccc2cc1-c1cnc3ccc(nn13)NCCCNCCO2 [Compound G15]
< 100	> 300	c1cc2cc(c1)-c1cnc3ccc(nn13)NCCCNCCO2 [Compound G4]
< 100	> 300	CN1CCNCCCOc2ccc(F)c(c2)-c2cnc3ccc1nn23 [Compound G34]
< 100	284.8	CN1CCCNCCNc2ccc(F)c(c2)-c2cnn3ccc1nc23 [Compound G35]
< 100	> 300	CN1CCNCCOc2cccc(c2)-c2cnn3ccc1nc23 [Compound G2]
< 100	245.9	CC1COc2cccc(c2)-c2cnn3ccc(nc23)NCCN1 (stereo not drawn) [Compound G11]
< 100	> 300	Fc1ccc2cc1-c1cnc3ccc(nn13)NCCNCCCO2 [Compound G33]
< 100		Fc1ccc2cc1-c1cnn3ccc(nc13)NCCCOCCN2 [Compound G49]
100 to 1000	289.4	CN1CCCNc2ccc(F)c(c2)-c2cnc3ccc(nn23)N(C)CC1 [Compound G48]
	> 300	CN1CCCNCCOc2ccc(F)c(c2)-c2cnn3ccc1nc23 (as salt: HCl) [Compound G16]
100 to 1000	> 300	Clc1ccc2cc1-c1cnn3ccc(nc13)NCCNCCCO2 [Compound G30]
< 100	146.9	c1cc2cc(c1)-c1cnn3ccc(nc13)NCCCCNCCCO2 [Compound D5]
